Data as given in ChEMBL document CHEMBL5442219.

Tests used:
Settings in all cases: Compound concentration 10 µM
[1] = target: D(3) dopamine receptor (Homo sapiens) (UniProt P35462)
Description: PDSP Primary Binding target: DRD3 - Compounds are tested at 10 uM concentration, plate are incubated at room temperature in the dark for 90 minutes. Reaction are stopped by vacuum filtration onto 0.3% polyethyleneimine soaked filter mats using Filtermate harvester. Scintilation cocktail is then melted onto microwave-dried filters on a hot plate and the radio activity is counted in Microbia counter.

[2] = target: Kappa-type opioid receptor (Homo sapiens) (UniProt P41145)
Description: PDSP Primary Binding target: OPRK1 - Compounds are tested at 10 uM concentration, plate are incubated at room temperature in the dark for 90 minutes. Reaction are stopped by vacuum filtration onto 0.3% polyethyleneimine soaked filter mats using Filtermate harvester. Scintilation cocktail is then melted onto microwave-dried filters on a hot plate and the radio activity is counted in Microbia counter.

[3] = target: T1, Muscarinic acetylcholine receptor M2 (Homo sapiens) (UniProt P08172)
T1 sequence (whole entry): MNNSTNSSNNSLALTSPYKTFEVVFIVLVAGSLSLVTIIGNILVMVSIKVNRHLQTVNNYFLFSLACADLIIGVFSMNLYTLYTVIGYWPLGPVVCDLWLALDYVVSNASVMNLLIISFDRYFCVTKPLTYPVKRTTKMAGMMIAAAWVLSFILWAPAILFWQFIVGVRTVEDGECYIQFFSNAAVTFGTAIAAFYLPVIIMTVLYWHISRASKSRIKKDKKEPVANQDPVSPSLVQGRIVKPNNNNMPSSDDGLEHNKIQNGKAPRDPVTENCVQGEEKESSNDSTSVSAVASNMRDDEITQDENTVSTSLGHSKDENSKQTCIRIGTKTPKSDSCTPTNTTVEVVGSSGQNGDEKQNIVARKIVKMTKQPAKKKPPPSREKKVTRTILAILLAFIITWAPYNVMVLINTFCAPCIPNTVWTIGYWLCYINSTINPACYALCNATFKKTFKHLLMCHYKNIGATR
Description: PDSP Primary Binding target: CHRM2 - Compounds are tested at 10 uM concentration, plate are incubated at room temperature in the dark for 90 minutes. Reaction are stopped by vacuum filtration onto 0.3% polyethyleneimine soaked filter mats using Filtermate harvester. Scintilation cocktail is then melted onto microwave-dried filters on a hot plate and the radio activity is counted in Microbia counter.

[4] = target: T2, 5-hydroxytryptamine receptor 3A (Homo sapiens) (UniProt P46098)
T2 sequence (whole entry): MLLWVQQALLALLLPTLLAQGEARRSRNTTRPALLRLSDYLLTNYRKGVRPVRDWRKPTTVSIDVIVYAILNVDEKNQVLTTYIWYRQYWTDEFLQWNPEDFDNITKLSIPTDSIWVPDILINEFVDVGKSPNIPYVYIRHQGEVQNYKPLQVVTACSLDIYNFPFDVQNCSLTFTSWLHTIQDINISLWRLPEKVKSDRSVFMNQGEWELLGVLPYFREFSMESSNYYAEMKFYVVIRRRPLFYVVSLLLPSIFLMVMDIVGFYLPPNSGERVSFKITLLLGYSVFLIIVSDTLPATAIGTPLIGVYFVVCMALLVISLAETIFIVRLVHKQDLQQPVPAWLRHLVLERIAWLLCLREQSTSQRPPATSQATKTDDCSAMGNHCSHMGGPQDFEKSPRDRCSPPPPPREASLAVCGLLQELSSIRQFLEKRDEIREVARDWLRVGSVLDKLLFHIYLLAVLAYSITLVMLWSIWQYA
Description: PDSP Primary Binding target: HTR3A - Compounds are tested at 10 uM concentration, plate are incubated at room temperature in the dark for 90 minutes. Reaction are stopped by vacuum filtration onto 0.3% polyethyleneimine soaked filter mats using Filtermate harvester. Scintilation cocktail is then melted onto microwave-dried filters on a hot plate and the radio activity is counted in Microbia counter.

[5] = target: Sigma non-opioid intracellular receptor 1 (Homo sapiens) (UniProt Q99720)
Sigma non-opioid intracellular receptor 1 (Homo sapiens), sequence (Q99720 whole entry): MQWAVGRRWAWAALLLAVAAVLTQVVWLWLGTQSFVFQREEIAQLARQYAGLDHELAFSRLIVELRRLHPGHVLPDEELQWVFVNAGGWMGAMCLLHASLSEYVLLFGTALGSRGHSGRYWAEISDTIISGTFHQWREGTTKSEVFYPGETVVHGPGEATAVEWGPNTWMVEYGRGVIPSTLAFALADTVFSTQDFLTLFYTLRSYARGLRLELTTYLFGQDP
Description: PDSP Primary Binding target: SIGMAR1 - Compounds are tested at 10 uM concentration, plate are incubated at room temperature in the dark for 90 minutes. Reaction are stopped by vacuum filtration onto 0.3% polyethyleneimine soaked filter mats using Filtermate harvester. Scintilation cocktail is then melted onto microwave-dried filters on a hot plate and the radio activity is counted in Microbia counter.

[6] = target: 5-hydroxytryptamine receptor 2B (Homo sapiens) (UniProt P41595)
5-hydroxytryptamine receptor 2B (Homo sapiens), sequence (P41595 whole entry): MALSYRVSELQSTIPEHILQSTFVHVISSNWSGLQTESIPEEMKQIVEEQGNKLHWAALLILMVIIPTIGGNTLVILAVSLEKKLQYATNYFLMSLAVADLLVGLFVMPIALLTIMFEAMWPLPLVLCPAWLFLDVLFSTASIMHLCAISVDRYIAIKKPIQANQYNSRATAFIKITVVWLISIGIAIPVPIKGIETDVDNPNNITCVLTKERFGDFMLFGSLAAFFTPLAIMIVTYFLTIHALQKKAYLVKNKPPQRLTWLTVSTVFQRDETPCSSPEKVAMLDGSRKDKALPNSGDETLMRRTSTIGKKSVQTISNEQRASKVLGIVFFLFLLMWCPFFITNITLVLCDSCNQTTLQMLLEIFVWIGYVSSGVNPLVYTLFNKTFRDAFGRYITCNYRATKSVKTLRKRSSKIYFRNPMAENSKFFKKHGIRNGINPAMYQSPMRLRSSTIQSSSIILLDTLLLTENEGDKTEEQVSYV
Description: PDSP Primary Binding target: HTR2B - Compounds are tested at 10 uM concentration, plate are incubated at room temperature in the dark for 90 minutes. Reaction are stopped by vacuum filtration onto 0.3% polyethyleneimine soaked filter mats using Filtermate harvester. Scintilation cocktail is then melted onto microwave-dried filters on a hot plate and the radio activity is counted in Microbia counter.

[7] = target: T3, 5-hydroxytryptamine receptor 1A (Homo sapiens) (UniProt P08908)
T3 sequence (whole entry): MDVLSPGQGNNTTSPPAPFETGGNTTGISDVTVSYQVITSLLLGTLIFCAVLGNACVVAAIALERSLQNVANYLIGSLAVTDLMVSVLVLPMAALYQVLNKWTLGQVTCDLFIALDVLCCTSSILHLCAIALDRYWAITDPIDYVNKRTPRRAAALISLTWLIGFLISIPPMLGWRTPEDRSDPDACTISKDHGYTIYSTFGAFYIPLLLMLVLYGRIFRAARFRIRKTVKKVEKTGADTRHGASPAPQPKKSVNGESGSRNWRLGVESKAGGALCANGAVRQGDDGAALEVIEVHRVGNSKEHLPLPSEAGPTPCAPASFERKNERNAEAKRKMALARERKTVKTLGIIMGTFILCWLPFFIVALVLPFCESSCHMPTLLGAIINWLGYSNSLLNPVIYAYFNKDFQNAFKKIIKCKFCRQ
Description: PDSP Primary Binding target: HTR1A - Compounds are tested at 10 uM concentration, plate are incubated at room temperature in the dark for 90 minutes. Reaction are stopped by vacuum filtration onto 0.3% polyethyleneimine soaked filter mats using Filtermate harvester. Scintilation cocktail is then melted onto microwave-dried filters on a hot plate and the radio activity is counted in Microbia counter.

[8] = target: T4, Alpha-2B adrenergic receptor (Homo sapiens) (UniProt P18089)
T4 sequence (whole entry): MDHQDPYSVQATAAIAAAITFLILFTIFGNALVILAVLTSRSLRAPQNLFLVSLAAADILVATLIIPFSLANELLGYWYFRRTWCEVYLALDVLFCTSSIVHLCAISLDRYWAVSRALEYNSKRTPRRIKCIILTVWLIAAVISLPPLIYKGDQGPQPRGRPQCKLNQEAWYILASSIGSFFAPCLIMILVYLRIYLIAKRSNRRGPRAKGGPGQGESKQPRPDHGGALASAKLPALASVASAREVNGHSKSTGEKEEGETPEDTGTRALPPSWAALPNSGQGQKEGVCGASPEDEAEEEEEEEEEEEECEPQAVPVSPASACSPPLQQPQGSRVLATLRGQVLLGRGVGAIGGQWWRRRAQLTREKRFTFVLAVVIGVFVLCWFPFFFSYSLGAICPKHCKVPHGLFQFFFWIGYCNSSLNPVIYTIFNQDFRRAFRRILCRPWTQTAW
Description: PDSP Primary Binding target: ADRA2B - Compounds are tested at 10 uM concentration, plate are incubated at room temperature in the dark for 90 minutes. Reaction are stopped by vacuum filtration onto 0.3% polyethyleneimine soaked filter mats using Filtermate harvester. Scintilation cocktail is then melted onto microwave-dried filters on a hot plate and the radio activity is counted in Microbia counter.

[9] = target: 5-hydroxytryptamine receptor 5A (Homo sapiens) (UniProt P47898)
5-hydroxytryptamine receptor 5A (Homo sapiens), sequence (P47898 whole entry): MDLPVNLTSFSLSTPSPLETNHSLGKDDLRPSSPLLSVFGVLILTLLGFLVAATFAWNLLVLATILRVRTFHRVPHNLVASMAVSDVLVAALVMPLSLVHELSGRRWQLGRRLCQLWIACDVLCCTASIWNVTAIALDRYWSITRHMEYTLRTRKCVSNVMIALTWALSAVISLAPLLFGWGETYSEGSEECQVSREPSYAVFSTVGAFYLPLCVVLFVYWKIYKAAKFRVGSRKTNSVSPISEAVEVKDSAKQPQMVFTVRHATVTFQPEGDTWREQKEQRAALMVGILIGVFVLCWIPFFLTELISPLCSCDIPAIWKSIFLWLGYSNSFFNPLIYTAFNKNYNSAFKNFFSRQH
Description: PDSP Primary Binding target: HTR5A - Compounds are tested at 10 uM concentration, plate are incubated at room temperature in the dark for 90 minutes. Reaction are stopped by vacuum filtration onto 0.3% polyethyleneimine soaked filter mats using Filtermate harvester. Scintilation cocktail is then melted onto microwave-dried filters on a hot plate and the radio activity is counted in Microbia counter.

[10] = target: T5, 5-hydroxytryptamine receptor 2C (Homo sapiens) (UniProt P28335)
T5 sequence (whole entry): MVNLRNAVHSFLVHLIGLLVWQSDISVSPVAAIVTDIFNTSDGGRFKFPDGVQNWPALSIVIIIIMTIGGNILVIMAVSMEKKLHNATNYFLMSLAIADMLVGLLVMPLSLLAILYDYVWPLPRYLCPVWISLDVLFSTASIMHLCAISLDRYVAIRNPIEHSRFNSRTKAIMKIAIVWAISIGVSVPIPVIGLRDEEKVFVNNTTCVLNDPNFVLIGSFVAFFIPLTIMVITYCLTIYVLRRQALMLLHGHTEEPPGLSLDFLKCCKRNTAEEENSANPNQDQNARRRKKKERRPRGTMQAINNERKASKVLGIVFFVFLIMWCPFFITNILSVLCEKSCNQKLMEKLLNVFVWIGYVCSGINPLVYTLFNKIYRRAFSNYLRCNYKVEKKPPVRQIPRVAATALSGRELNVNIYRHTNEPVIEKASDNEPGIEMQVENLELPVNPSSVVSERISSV
Description: PDSP Primary Binding target: HTR2C - Compounds are tested at 10 uM concentration, plate are incubated at room temperature in the dark for 90 minutes. Reaction are stopped by vacuum filtration onto 0.3% polyethyleneimine soaked filter mats using Filtermate harvester. Scintilation cocktail is then melted onto microwave-dried filters on a hot plate and the radio activity is counted in Microbia counter.

D(3) dopamine receptor (Homo sapiens), sequence (P35462 whole entry): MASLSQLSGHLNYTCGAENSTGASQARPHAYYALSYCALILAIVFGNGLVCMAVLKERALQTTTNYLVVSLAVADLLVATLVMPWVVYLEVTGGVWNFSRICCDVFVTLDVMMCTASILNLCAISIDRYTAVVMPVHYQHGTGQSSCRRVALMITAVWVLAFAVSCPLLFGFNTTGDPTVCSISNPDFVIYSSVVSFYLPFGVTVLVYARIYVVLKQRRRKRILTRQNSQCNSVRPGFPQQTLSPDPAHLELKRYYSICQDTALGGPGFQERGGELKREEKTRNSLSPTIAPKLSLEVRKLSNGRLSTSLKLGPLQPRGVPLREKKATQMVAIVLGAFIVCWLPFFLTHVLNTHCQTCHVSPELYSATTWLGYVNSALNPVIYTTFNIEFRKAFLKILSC
Kappa-type opioid receptor (Homo sapiens), sequence (P41145 whole entry): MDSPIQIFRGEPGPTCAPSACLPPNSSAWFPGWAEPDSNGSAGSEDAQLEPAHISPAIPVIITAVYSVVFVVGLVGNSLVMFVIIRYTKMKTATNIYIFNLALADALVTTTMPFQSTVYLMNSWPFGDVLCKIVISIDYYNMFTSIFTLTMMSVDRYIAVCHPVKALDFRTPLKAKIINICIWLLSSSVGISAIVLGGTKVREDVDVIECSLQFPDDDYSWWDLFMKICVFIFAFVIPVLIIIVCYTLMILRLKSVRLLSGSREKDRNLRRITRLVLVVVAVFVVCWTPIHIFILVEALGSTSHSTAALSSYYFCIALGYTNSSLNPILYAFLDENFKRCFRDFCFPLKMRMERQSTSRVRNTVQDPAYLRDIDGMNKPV

In the case of `O=C(Nc1ccc(Cl)cc1)Nc1cccc(-c2cccc(N3CCCC3)n2)c1`, the inhibition [1] is reported as 48.5%, the inhibition [2] is reported as 7.04% and the inhibition [3] is reported as 12.7%. For the same molecule, the inhibition [4] was -5.81%, the inhibition [5] was 47.3% and the inhibition [6] was 10.6%. For the same molecule, the inhibition [7] was 28.2% and the inhibition [8] was 5.47%.
With `COc1cccc([C@H](O)C2CCN(CCc3ccc(F)cc3)CC2)c1OC` the inhibition [9] was 16.8%, the inhibition [1] was 9.18% and the inhibition [3] was 1.5%. For the same molecule, the inhibition [4] was 9.53%, the inhibition [5] was 3.05% and the inhibition [6] was 89.1%. It also gave an inhibition [7] of 3.32% and an inhibition [8] of 71.7%.
Work on `CCCCCCCCCCCCCCCCOC[C@H](COP(=O)([O-])OCC[N+](C)(C)C)OC(C)=O` yielded an inhibition [9] of 17.5%, an inhibition [1] of 72.5% and an inhibition [2] of 11.9%. For the same molecule, the inhibition [3] was -4.25%, the inhibition [5] was 7.97% and the inhibition [7] was 2.85%. The inhibition [10] was 67.9% and the inhibition [8] was 68.8%.
Work on `Cc1nc(C(=O)N2CCC[C@H]2Cc2nnc(-c3ccccc3)o2)c(-c2ccccc2F)s1` yielded an inhibition [9] of 12.1%, an inhibition [1] of 45% and an inhibition [2] of 57.7%. The inhibition [3] was 71.2%, the inhibition [4] was -1.8% and the inhibition [5] was 35.9%. It also gave an inhibition [6] of 92.6%, an inhibition [7] of 3.86% and an inhibition [10] of 4.37%.
`O=C(Cc1ccc(Cl)c(Cl)c1)N1CCCC[C@H]1CN1CCCC1` was tested, and the inhibition [1] was 18.5%, the inhibition [2] was 99.7% and the inhibition [3] was 12%. The inhibition [4] was 5.92%, the inhibition [5] was 94.7% and the inhibition [6] was 35.7%. It also gave an inhibition [7] of -1.23%, an inhibition [10] of -3.64% and an inhibition [8] of 34.8%.
`CC[C@@H]1CN2C(=O)N(C)c3nc(-c4ccccc4)[nH]c3C2=N1` showed an inhibition [9] of 14.4%, an inhibition [1] of 27.9% and an inhibition [2] of 6.33%. It also gave an inhibition [3] of -8.11%, an inhibition [5] of 64.2% and an inhibition [6] of -1.79%. The inhibition [7] was 12%, the inhibition [10] was 14.2% and the inhibition [8] was -5.85%.
`CCCCC#Cc1nc(NC)c2ncn([C@@H]3O[C@H](CO)[C@@H](O)[C@H]3O)c2n1` was tested, and the inhibition [9] was -6.71%, the inhibition [1] was 32.7% and the inhibition [2] was 8.14%. The inhibition [3] was 22.8%, the inhibition [4] was 14.1% and the inhibition [5] was -7.49%. For the same molecule, the inhibition [6] was -4.41%, the inhibition [7] was 3.96% and the inhibition [10] was 17.8%.
Work on `CCCCCNC(=O)NS(=O)(=O)c1cc([N+](=O)[O-])ccc1NC1CCCCC1` yielded an inhibition [1] of 52.2%, an inhibition [2] of 14.7% and an inhibition [3] of -9.24%. For the same molecule, the inhibition [4] was -7.62%, the inhibition [5] was 16% and the inhibition [6] was -9.68%. The inhibition [7] was 1.18%, the inhibition [10] was 11.4% and the inhibition [8] was -2.94%.
Molecule `O=C(Cc1ccccc1)Nc1nc2ccc(Cl)cc2c2nc(-c3ccco3)nn12` has an inhibition [9] of 15.2%, an inhibition [1] of 30.2% and an inhibition [2] of 12.4%. The inhibition [3] was -4.43%, the inhibition [5] was -4.19% and the inhibition [6] was -0.19%. For the same molecule, the inhibition [7] was -8.72%, the inhibition [10] was -5.69% and the inhibition [8] was 4.67%.
Molecule `N#Cc1c(N)nc(SCC(N)=O)c(C#N)c1-c1ccc(OCC2CC2)cc1` has an inhibition [9] of 7.71%, an inhibition [1] of -6.34% and an inhibition [2] of 89%. For the same molecule, the inhibition [3] was -6.03%, the inhibition [5] was 62% and the inhibition [6] was 12.7%. For the same molecule, the inhibition [7] was 2.75% and the inhibition [8] was -9.96%.
With `C[C@H](NC[C@H](O)CP(=O)(O)CC1CCCCC1)c1ccc(Cl)c(Cl)c1` the inhibition [9] was -8.92%, the inhibition [1] was 19.5% and the inhibition [2] was 52.3%. It also gave an inhibition [3] of 40.4%, an inhibition [4] of 6.3% and an inhibition [5] of 49.6%. The inhibition [6] was 0.95% and the inhibition [7] was -7.25%.
`CCCCc1nc(Cl)c(CO)n1Cc1ccc(-c2ccccc2-c2nnn[nH]2)cc1` showed an inhibition [9] of 16.9%, an inhibition [1] of 46.3% and an inhibition [3] of -0.57%. It also gave an inhibition [4] of -6.45%, an inhibition [5] of 9.91% and an inhibition [6] of 37.1%. It also gave an inhibition [7] of 19.9% and an inhibition [10] of 55%.
For `COc1ccc(Br)cc1S(=O)(=O)NC(=O)/C=C/c1ccccc1Cc1ccc2ccccc2c1`, the inhibition [1] was 64.7%, the inhibition [2] was 1.49% and the inhibition [3] was 40.7%. The inhibition [4] was 3.03%, the inhibition [5] was 11% and the inhibition [6] was -4.73%. For the same molecule, the inhibition [7] was 9.76%, the inhibition [10] was 26.2% and the inhibition [8] was -4.1%.
With `CCOC(=O)c1c(C)[nH]c2ccc3c(c12)CN1CCc2cc(OC)ccc2C1O3` (stereo not given) the inhibition [9] was 31%, the inhibition [1] was 44.2% and the inhibition [2] was 57.4%. The inhibition [3] was 22.6%, the inhibition [4] was 75.4% and the inhibition [5] was 29.3%. The inhibition [6] was 67.6% and the inhibition [8] was 60%.
Work on `Cc1cc(NC(=O)Nc2ccc(N(C)C)cc2)c2cc(F)cc(F)c2n1` yielded an inhibition [1] of 34.5%, an inhibition [2] of 22.3% and an inhibition [3] of 52.8%. It also gave an inhibition [4] of 7.73%, an inhibition [5] of 96% and an inhibition [6] of 73.3%. The inhibition [10] was 20.1% and the inhibition [8] was 3.9%.
`N#Cc1cccc(C(=O)Nc2cc(-c3ccccc3)nn2-c2ccccc2)c1` gave an inhibition [9] of 1.34%, an inhibition [1] of 30.4% and an inhibition [2] of 16.2%. For the same molecule, the inhibition [3] was 20.9%, the inhibition [5] was 8.95% and the inhibition [6] was 2.3%. The inhibition [7] was 14.8%, the inhibition [10] was 7.87% and the inhibition [8] was 0.47%.
Work on `CC(C)NCC(O)COc1ccc(CCOCC2CC2)cc1` (stereo not given) yielded an inhibition [9] of -3.84%, an inhibition [1] of 5.81% and an inhibition [2] of 20.5%. The inhibition [3] was -4.15%, the inhibition [4] was -0.24% and the inhibition [5] was 91.7%. It also gave an inhibition [6] of 32.1%, an inhibition [7] of -1.07% and an inhibition [8] of 24.5%.
With `Cc1c(OCc2cccc(-c3ccc(C(=O)O)cc3)c2)cc2c(c1C)C(=O)C(C1CCCC1)C2` (stereo not given) the inhibition [1] was 33.5%, the inhibition [2] was -0.11% and the inhibition [3] was 32.3%. The inhibition [4] was -4.07%, the inhibition [5] was -6.04% and the inhibition [7] was -4.54%. It also gave an inhibition [10] of 6.16%.
`C[C@H](Cc1cc2c(c(C(N)=O)c1)N(CCCO)CC2)NCCOc1ccccc1OCC(F)(F)F` was tested, and the inhibition [9] was 25.3%, the inhibition [1] was 94.1% and the inhibition [2] was 4.22%. It also gave an inhibition [3] of -1.87%, an inhibition [4] of 1.73% and an inhibition [5] of 38.9%. The inhibition [6] was 71.7%, the inhibition [7] was 100% and the inhibition [8] was 69.7%.
`CC(C)(N)C(=O)N[C@H](COCc1ccccc1)C(=O)N1CCC2(CC1)CN(S(C)(=O)=O)c1ccccc12` was tested, and the inhibition [1] was 25.7%, the inhibition [2] was 17.4% and the inhibition [3] was 1.1%. The inhibition [4] was 17.7%, the inhibition [5] was 16.4% and the inhibition [6] was 3.09%. For the same molecule, the inhibition [7] was -5.57%, the inhibition [10] was -2.12% and the inhibition [8] was -5.98%.
